# Reference: patent US10800792B2, “Inhibitors of Bruton's tyrosine kinase and method of their use” (JANSSEN PHARMACEUTICA NV, priority 2015, dated 2020)
# Target: unphosphorylated-BTK kinase domain (UP-BTK), GST-tagged human BTK (389-659aa) (Homo sapiens (Human), UniProt Q06187)
# Experiment: BTK kinase Lanthascreen binding assay
# Settings: Lanthascreen tracer competition, 60 minutes incubation, pIC50 = negative log of the IC50 in molar
# Method in brief: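 Values are pIC50, i.e. negative log of IC50 in molar, derived from concentration–response fitting. Each compound competes with a fluorescently labelled tracer for the unphosphorylated kinase domain.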
# Chain of unphosphorylated-BTK kinase domain (UP-BTK), GST-tagged human BTK (389-659aa) (Q06187 389-659): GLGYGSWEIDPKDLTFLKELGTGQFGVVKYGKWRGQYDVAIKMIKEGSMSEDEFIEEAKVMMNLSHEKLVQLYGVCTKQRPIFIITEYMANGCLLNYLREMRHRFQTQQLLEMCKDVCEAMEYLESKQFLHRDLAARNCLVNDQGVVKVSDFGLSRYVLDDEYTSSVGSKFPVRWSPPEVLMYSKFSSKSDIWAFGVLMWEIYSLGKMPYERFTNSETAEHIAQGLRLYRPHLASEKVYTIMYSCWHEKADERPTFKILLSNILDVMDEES
BTK_I_binding pIC50,IC50 (read-out: BTK_I_binding pIC50 (converted)) [nM],SMILES
7.1,,"Cc1cc(Oc2ccccc2)ccc1N1C(=O)Nc2c(C(=O)N[C@@H]3CCCN(C(=O)/C(C#N)=C/C(C)(C)C)C3)sc3nccc1c23 [Example 880, (R,E)-N-(1-(2-Cyano-4,4-dimethylpent-2-enoyl)piperidin-3-yl)-5-(2-methyl-4-phenoxyphenyl)-4-oxo-4,5-dihydro-3H-1-thia-3,5,8-triazaacenaphthylene-2-carboxamide]"
7.1,,"C=CC(=O)N1CC[C@@H](NC(=O)c2sc3nccc4c3c2NC(=O)N4c2ccc(Oc3ccccn3)cc2)C1 [Example 881, (R)—N-(1-Acryloylpyrrolidin-3-yl)-4-oxo-5-(4-(pyridin-2-yloxy)phenyl)-4,5-dihydro-3H-1-thia-3,5,8-triazaacenaphthylene-2-carboxamide]"
7.0,,"COc1ccccc1Oc1ccc(N2C(=O)Nc3c(C(=O)NC4CCCN(C#N)C4)sc4nccc2c34)c(C)c1 (centres unmarked) [Example 883, N-(1-Cyanopiperidin-3-yl)-5-(4-(2-methoxyphenoxy)-2-methylphenyl)-4-oxo-4,5-dihydro-3H-1-thia-3,5,8-triazaacenaphthylene-2-carboxamide]"
7.0,,"COc1ccccc1Oc1ccc(N2C(=O)Nc3c(C(=O)NC4CCN(C#N)CC4)sc4nccc2c34)c(C)c1 [Example 884, N-(1-Cyanopiperidin-4-yl)-5-(4-(2-methoxyphenoxy)-2-methylphenyl)-4-oxo-4,5-dihydro-3H-1-thia-3,5,8-triazaacenaphthylene-2-carboxamide]"
7.0,,"Cc1cc(Oc2ccccc2)ccc1N1C(=O)Nc2c(C(=O)N[C@@H]3CCCN(C=O)C3)sc3nccc1c23 [Example 885, (R)—N-(1-Formylpiperidin-3-yl)-5-(2-methyl-4-phenoxyphenyl)-4-oxo-4,5-dihydro-3H-1-thia-3,5,8-triazaacenaphthylene-2-carboxamide]"
7.0,,"Cc1ccccc1N1C(=O)Nc2c(C(=O)NC3CCCN(C(=O)/C(C#N)=C/C4CC4)C3)sc3nccc1c23 (centres unmarked) [Example 886, (E)-N-(1-(2-Cyano-3-cyclopropylacryloyl)piperidin-3-yl)-4-oxo-5-(o-tolyl)-4,5-dihydro-3H-1-thia-3,5,8-triazaacenaphthylene-2-carboxamide]"
7.0,,"Cc1cc(Oc2ccccc2)ccc1N1C(=O)Nc2c(C(=O)N[C@H]3CCCN(C#N)C3)sc3nccc1c23 [Example 887, (S)—N-(1-Cyanopiperidin-3-yl)-5-(2-methyl-4-phenoxyphenyl)-4-oxo-4,5-dihydro-3H-1-thia-3,5,8-triazaacenaphthylene-2-carboxamide]"
7.0,,"CC(=O)N1CC[C@@H](NC(=O)c2sc3nccc4c3c2NC(=O)N4c2ccc(Oc3ccccc3)cc2)C1 [Example 888, (R)—N-(1-Acetylpyrrolidin-3-yl)-4-oxo-5-(4-phenoxyphenyl)-4,5-dihydro-3H-1-thia-3,5,8-triazaacenaphthylene-2-carboxamide]"
7.0,,"Cc1cc(Oc2ccccc2)ccc1N1C(=O)Nc2c(C(=O)NC3CCCN(C#N)C3)sc3nccc1c23 (centres unmarked) [Example 890, N-(1-Cyanopiperidin-3-yl)-5-(2-methyl-4-phenoxyphenyl)-4-oxo-4,5-dihydro-3H-1-thia-3,5,8-triazaacenaphthylene-2-carboxamide]"
7.0,,"CCC(=O)N1CCC[C@H](NC(=O)c2sc3nccc4c3c2NC(=O)N4c2ccc(Oc3ccccc3)cc2C)C1 [Example 891, (S)-5-(2-Methyl-4-phenoxyphenyl)-4-oxo-N-(1-propionylpiperidin-3-yl)-4,5-dihydro-3H-1-thia-3,5,8-triazaacenaphthylene-2-carboxamide]"
,100,"Cc1cc(Oc2ccccc2)ccc1N1C(=O)Nc2c(C(=O)N[C@@H]3CCCN(C(=O)[C@@H]4CCCN4)C3)sc3nccc1c23 [Example 893, 5-(2-Methyl-4-phenoxyphenyl)-4-oxo-N—((R)-1-((S)-pyrrolidine-2-carbonyl)piperidin-3-yl)-4,5-dihydro-3H-1-thia-3,5,8-triazaacenaphthylene-2-carboxamide]"
7.0,,"C=CC(=O)N1CCC[C@@H](NC(=O)c2sc3nccc4c3c2NC(=O)N4c2ccc(Oc3cccc(COc4ccccc4C#N)c3)cc2C)C1 [Example 894, (R)—N-(1-Acryloylpiperidin-3-yl)-5-(4-(3-((2-cyanophenoxy)methyl)phenoxy)-2-methylphenyl)-4-oxo-4,5-dihydro-3H-1-thia-3,5,8-triazaacenaphthylene-2-carboxamide]"
7.0,,"Cc1cc(C(=O)Nc2cc(C(F)(F)F)ccn2)ccc1N1C(=O)Nc2c(C(=O)N[C@H]3CCCN(C(=O)/C(C#N)=C/C4CC4)C3)sc3nccc1c23 [Example 895, (S,E)-N-(1-(2-Cyano-3-cyclopropylacryloyl)piperidin-3-yl)-5-(2-methyl-4-((4-(trifluoromethyl)pyridin-2-yl)carbamoyl)phenyl)-4-oxo-4,5-dihydro-3H-1-thia-3,5,8-triazaacenaphthylene-2-carboxamide]"
6.9,,"COc1ccccc1Oc1ccc(N2C(=O)Nc3c(C(=O)NC4CCCN(C(=O)/C(C#N)=C/C(C)(C)C)C4)sc4nccc2c34)c(C)c1 (centres unmarked) [Example 896, (E)-N-(1-(2-Cyano-4,4-dimethylpent-2-enoyl)piperidin-3-yl)-5-(4-(2-methoxyphenoxy)-2-methylphenyl)-4-oxo-4,5-dihydro-3H-1-thia-3,5,8-triazaacenaphthylene-2-carboxamide]"
6.8,,"Cc1cc(Oc2ccccc2)ccc1N1C(=O)Nc2c(C(=O)NC3CCCN(C(=O)/C(C#N)=C/C(C)(C)C)C3)sc3nccc1c23 (centres unmarked) [Example 897, (E)-N-(1-(2-Cyano-4,4-dimethylpent-2-enoyl)piperidin-3-yl)-5-(2-methyl-4-phenoxyphenyl)-4-oxo-4,5-dihydro-3H-1-thia-3,5,8-triazaacenaphthylene-2-carboxamide]"

# The remaining lines, values behind:
SMILES,BTK_I_binding pIC50,IC50 (read-out: BTK_I_binding pIC50 (converted)) [nM]
"CCC(=O)N1CCC[C@@H](NC(=O)c2sc3nccc4c3c2NC(=O)N4c2ccc(Oc3ccccc3)cc2C)C1 [Example 871, (R)-5-(2-Methyl-4-phenoxyphenyl)-4-oxo-N-(1-propionylpiperidin-3-yl)-4,5-dihydro-3H-1-thia-3,5,8-triazaacenaphthylene-2-carboxamide]",7.3,
"Cc1cc(Oc2ccccc2)ccc1N1C(=O)Nc2c(C(=O)NC3CCN(C#N)CC3)sc3nccc1c23 [Example 872, N-(1-Cyanopiperidin-4-yl)-5-(2-methyl-4-phenoxyphenyl)-4-oxo-4,5-dihydro-3H-1-thia-3,5,8-triazaacenaphthylene-2-carboxamide]",7.2,
"Cc1cc(Oc2ccccc2)ccc1N1C(=O)Nc2c(C(=O)N[C@@H]3CCCN(C)C3)sc3nccc1c23 [Example 873, (R)-5-(2-Methyl-4-phenoxyphenyl)-N-(1-methylpiperidin-3-yl)-4-oxo-4,5-dihydro-3H-1-thia-3,5,8-triazaacenaphthylene-2-carboxamide]",6.9,
"Cc1cc(Oc2ccccc2)ccc1N1C(=O)Nc2c(C(=O)N[C@@H]3CCCN(C(=O)[C@H]4CCCN4)C3)sc3nccc1c23 [Example 876, 5-(2-Methyl-4-phenoxyphenyl)-4-oxo-N—((R)-1-((R)-pyrrolidine-2-carbonyl)piperidin-3-yl)-4,5-dihydro-3H-1-thia-3,5,8-triazaacenaphthylene-2-carboxamide]",7.1,
"Cc1cc(Oc2ccccc2)ccc1N1C(=O)Nc2c(C(=O)NC3CCCN(C(=O)/C(C#N)=C/C4CC4)C3)sc3nccc1c23 (centres unmarked) [Example 877, (E)-N-(1-(2-Cyano-3-cyclopropylacryloyl)piperidin-3-yl)-5-(2-methyl-4-phenoxyphenyl)-4-oxo-4,5-dihydro-3H-1-thia-3,5,8-triazaacenaphthylene-2-carboxamide]",7.1,
"COc1ccc(N2C(=O)Nc3c(C(=O)NC4CCCN(C(=O)/C(C#N)=C/C5CC5)C4)sc4nccc2c34)c(C)c1 (centres unmarked) [Example 878, (E)-N-(1-(2-Cyano-3-cyclopropylacryloyl)piperidin-3-yl)-5-(4-methoxy-2-methylphenyl)-4-oxo-4,5-dihydro-3H-1-thia-3,5,8-triazaacenaphthylene-2-carboxamide]",7.1,
"Cc1cc(Oc2ccccc2)ccc1N1C(=O)Nc2c(C(=O)N[C@H]3CCCN(C=O)C3)sc3nccc1c23 [Example 879, (S)—N-(1-Formylpiperidin-3-yl)-5-(2-methyl-4-phenoxyphenyl)-4-oxo-4,5-dihydro-3H-1-thia-3,5,8-triazaacenaphthylene-2-carboxamide]",7.1,
"Cc1cc(Oc2ccccc2)ccc1N1C(=O)Nc2c(C(=O)NC3CCCN(C(=O)CC#N)C3)sc3nccc1c23 (centres unmarked) [Example 882, N-(1-(2-Cyanoacetyl)piperidin-3-yl)-5-(2-methyl-4-phenoxyphenyl)-4-oxo-4,5-dihydro-3H-1-thia-3,5,8-triazaacenaphthylene-2-carboxamide]",7.0,
"Cc1cc(Oc2ccccc2)ccc1N1C(=O)Nc2c(C(=O)NC3CCCNC3)sc3nccc1c23 (centres unmarked) [Example 889, 5-(2-methyl-4-phenoxyphenyl)-4-oxo-N-(piperidin-3-yl)-4,5-dihydro-3H-1-thia-3,5,8-triazaacenaphthylene-2-carboxamide]",7.0,
"Cc1cc(Oc2ccccc2)ccc1N1C(=O)Nc2c(C(=O)N[C@H]3CCCN(C(=O)CC#N)C3)sc3nccc1c23 [Example 892, (S)—N-(1-(2-Cyanoacetyl)piperidin-3-yl)-5-(2-methyl-4-phenoxyphenyl)-4-oxo-4,5-dihydro-3H-1-thia-3,5,8-triazaacenaphthylene-2-carboxamide]",7.0,
"Cc1cc(Oc2ccccc2)ccc1N1C(=O)Nc2c(C(=O)NC3CCCN(C)C3)sc3nccc1c23 (centres unmarked) [Example 898, 5-(2-Methyl-4-phenoxyphenyl)-N-(1-methylpiperidin-3-yl)-4-oxo-4,5-dihydro-3H-1-thia-3,5,8-triazaacenaphthylene-2-carboxamide]",6.8,
